ChEMBL document CHEMBL5137017, “Identification of NVP-CLR457 as an Orally Bioavailable Non-CNS-Penetrant pan-Class IA Phosphoinositol-3-Kinase Inhibitor” (J Med Chem, 2022)
In brackets after ≈: the same amount, converted by molar mass.

What was measured:
[1] = Dose normalized AUC in OF1 mouse plasma at 3 mg/kg, iv measured upto 24 hrs by LC-MS/MS analysis; type: ADME, organism-based; details: in vivo
[2] = Half life in Beagle dog at 5.4 mg/kg, po measured upto 24 hrs using PVP-ASD form of sample by LC-MS/MS analysis; type: ADME, organism-based, Canis lupus familiaris; details: in vivo
[3] = Effect on plasma insulin level in athymic nude mouse xenografted with rat Rat1 cells expressing myr-p110alpha at 10 mg/kg, po qd measured upto 14 hrs by glucometer analysis; type: toxicity, organism-based; details: in vivo
[4] = Inhibition of PI3K PTEN mutant in human HCC1937 cells assessed as reduction in phosphorylation of AKT at Ser473 residue by Western blot analysis; type: cell-based
[5] = Stability in rat liver microsomes assessed as hepatic extraction preincubated for 3 mins followed by NADPH addition and measured after 60 mins; type: ADME, Microsome; details: read-out: ERH
[6] = Effect on blood glucose level in athymic nude mouse xenografted with rat Rat1 cells expressing myr-p110alpha assessed as fold increase at 40 mg/kg, po bid measured for 2 to 10 hrs by glucometer analysis; type: toxicity, organism-based; details: in vivo, time 2-10 hrs
[7] = Toxicity in athymic nude mouse xenografted with rat Rat1 cells expressing myr-p110alpha assessed as decrease in body weight at 40 mg/kg, po bid measured after 9 days; type: organism-based; details: in vivo, 216 h, time 9 day
[8] = Brain to blood ratio in OF1 mouse at 1 mg/kg, iv measured at 5 mins post dose by LC-MS/MS analysis; type: ADME, organism-based; details: brain and blood, read-out: BBR
[9] = Aqueous solubility of compound in buffer at pH 4 by HPLC analysis; type: physicochemical
[10] = Drug concentration in OF1 mouse blood at 1 mg/kg, iv measured at 5 mins post dose by LC-MS/MS analysis; type: ADME, organism-based; details: whole blood, read-out: Ct
[11] = Dose normalized AUC in OF1 mouse plasma at 10 mg/kg, po measured upto 24 hrs by LC-MS/MS analysis; type: ADME, organism-based; details: in vivo
[12] = Dose normalized AUC(0 to Tlast) in athymic nude mouse xenografted with rat Rat1 cells expressing myr-p110alpha at 20 mg/kg, po measured after 8 days by LC-MS/MS analysis; type: ADME, organism-based; details: in vivo, 192 h, time 8 day
[13] = Drug concentration in OF1 mouse brain at 1 mg/kg, iv measured at 5 mins post dose by LC-MS/MS analysis; type: ADME, organism-based; details: in vivo
[14] = Dose normalized AUC(0 to Tlast) in athymic nude mouse xenografted with rat Rat1 cells expressing myr-p110alpha at 40 mg/kg, po measured after 8 days by LC-MS/MS analysis; type: ADME, organism-based; details: in vivo, 192 h, time 8 day
[15] = Toxicity in athymic nude mouse xenografted with rat Rat1 cells expressing myr-p110delta assessed as drug tolerance at 20 mg/kg, po bid measured for 7 to 15 days; type: organism-based; details: in vivo, time 7-15 day
[16] = Antitumor activity at patient derived human HBRX2524 xenografted in athymic nude mouse assessed as T/C ratio at 40 mg/kg, po qd measured upto 16 days; type: functional; details: time <= 16 day
Caco-2 = assay: Nonspecific permeability coefficient in human Caco-2 cells at 0.25 to 30 uM measured after 120 mins by LC-MS/MS analysis; type: ADME, cell-based; details: caco-2, 2 h, dose 0.25-30 µM
[17] = Solubility of compound in simulated gastric fluid at pH 2 measured upto 30 mins by HPLC analysis; type: physicochemical
[18] = Dose normalized AUC in Sprague-Dawley rat at 3 mg/kg, po measured upto 24 hrs by LC-MS/MS analysis; type: ADME, organism-based; details: in vivo
[19] = Dose normalized AUC(0 to Tlast) in athymic nude mouse xenografted with rat Rat1 cells expressing myr-p110alpha at 3 mg/kg, po measured after 8 days by LC-MS/MS analysis; type: ADME, organism-based; details: in vivo, 192 h, time 8 day
[20] = Cmax in athymic nude mouse xenografted with rat Rat1 cells expressing myr-p110alpha at 40 mg/kg, po measured after 8 days by LC-MS/MS analysis; type: ADME, organism-based; parameters: dose 40 mg/kg, time 8 day, route po; details: in vivo
[21] = Effect on blood glucose level in athymic nude mouse xenografted with rat Rat1 cells expressing myr-p110alpha at 20 mg/kg, po bid measured upto 14 hrs by glucometer analysis; type: toxicity, organism-based; details: in vivo
[22] = Tmax in Beagle dog at 5.4 mg/kg, po measured upto 24 hrs using PVP-ASD form of sample by LC-MS/MS analysis; type: ADME, organism-based, Canis lupus familiaris; details: in vivo
[23] = Inhibition of PI3K PTEN mutant in human MDA-MB-436 cells assessed as reduction in phosphorylation of AKT at Ser473 residue by Western blot analysis; type: cell-based
[24] = Tmax in beagle dog at 0.3 mg/kg,po or 0.1 mg/kg,iv measured upto 24 hrs by LC-MS/MS analysis; type: ADME, organism-based, Canis lupus familiaris; details: in vivo
[25] = Oral bioavailability in Sprague-Dawley rat at 20 mg/kg using crystalline form of sample; type: ADME, organism-based; details: in vivo
[26] = Dose normalized Cmax in beagle dog at 0.3 mg/kg, po measured upto 24 hrs by LC-MS/MS analysis; type: ADME, organism-based, Canis lupus familiaris; details: in vivo
Rat1 = assay: Antitumor activity at rat Rat1 cells expressing myr-p110alpha xenografted in athymic nude mouse assessed as T/C ratio at 10 mg/kg, po qd measured after 14 to 22 days; type: functional; details: time 14-22 day
[27] = Clast in athymic nude mouse xenografted with rat Rat1 cells expressing myr-p110alpha at 10 mg/kg, po measured after 8 days by LC-MS/MS analysis; type: ADME, organism-based; details: in vivo, time 8 day, read-out: Clast
[28] = Inhibition of PI3K PTEN mutant in human MDA-MB-468 cells assessed as reduction in phosphorylation of AKT at Ser473 residue by Western blot analysis; type: cell-based
[29] = Effect on plasma insulin level in athymic nude mouse xenografted with rat Rat1 cells expressing myr-p110alpha at 3 mg/kg, po qd measured upto 14 hrs by glucometer analysis; type: toxicity, organism-based; details: in vivo
[30] = Cmax in OF1 mouse at 10 mg/kg,po or 3 mg/kg,iv measured upto 24 hrs by LC-MS/MS analysis; type: ADME, organism-based; parameters: time < 24 hrs, dose 10 mg/kg, route po; details: in vivo
[31] = Half life in OF1 mouse at 10 mg/kg,po or 3 mg/kg,iv measured upto 24 hrs by LC-MS/MS analysis; type: ADME, organism-based; details: in vivo
cells = details: Rattus norvegicus, Rat1, 1 h
[32] = Plasma protein binding in OF1 mouse plasma at 10 mg/kg,po or 3 mg/kg,iv measured after 4 hrs by rapid equilibrium dialysis method; type: ADME, organism-based; details: read-out: PPB (converted)
[33] = Tmax in Sprague-Dawley rat at 3 mg/kg, po measured upto 24 hrs by LC-MS/MS analysis; type: ADME, organism-based; details: in vivo
[34] = molecular target: Phosphatidylinositol 4,5-bisphosphate 3-kinase catalytic subunit gamma isoform (Homo sapiens, UniProt P48736); assay: Inhibition of PI3Kgamma (unknown origin) using phosphatidylinositol 4,5-bisphosphate as substrate measured for 15 to 60 mins by TR-FRET based Adapta universal kinase assay
[35] = Half life in beagle dog at 0.3 mg/kg,po or 0.1 mg/kg,iv measured upto 24 hrs by LC-MS/MS analysis; type: ADME, organism-based, Canis lupus familiaris; details: in vivo

Phosphatidylinositol 4,5-bisphosphate 3-kinase catalytic subunit gamma isoform, sequence (P48736 whole entry, canonical isoform): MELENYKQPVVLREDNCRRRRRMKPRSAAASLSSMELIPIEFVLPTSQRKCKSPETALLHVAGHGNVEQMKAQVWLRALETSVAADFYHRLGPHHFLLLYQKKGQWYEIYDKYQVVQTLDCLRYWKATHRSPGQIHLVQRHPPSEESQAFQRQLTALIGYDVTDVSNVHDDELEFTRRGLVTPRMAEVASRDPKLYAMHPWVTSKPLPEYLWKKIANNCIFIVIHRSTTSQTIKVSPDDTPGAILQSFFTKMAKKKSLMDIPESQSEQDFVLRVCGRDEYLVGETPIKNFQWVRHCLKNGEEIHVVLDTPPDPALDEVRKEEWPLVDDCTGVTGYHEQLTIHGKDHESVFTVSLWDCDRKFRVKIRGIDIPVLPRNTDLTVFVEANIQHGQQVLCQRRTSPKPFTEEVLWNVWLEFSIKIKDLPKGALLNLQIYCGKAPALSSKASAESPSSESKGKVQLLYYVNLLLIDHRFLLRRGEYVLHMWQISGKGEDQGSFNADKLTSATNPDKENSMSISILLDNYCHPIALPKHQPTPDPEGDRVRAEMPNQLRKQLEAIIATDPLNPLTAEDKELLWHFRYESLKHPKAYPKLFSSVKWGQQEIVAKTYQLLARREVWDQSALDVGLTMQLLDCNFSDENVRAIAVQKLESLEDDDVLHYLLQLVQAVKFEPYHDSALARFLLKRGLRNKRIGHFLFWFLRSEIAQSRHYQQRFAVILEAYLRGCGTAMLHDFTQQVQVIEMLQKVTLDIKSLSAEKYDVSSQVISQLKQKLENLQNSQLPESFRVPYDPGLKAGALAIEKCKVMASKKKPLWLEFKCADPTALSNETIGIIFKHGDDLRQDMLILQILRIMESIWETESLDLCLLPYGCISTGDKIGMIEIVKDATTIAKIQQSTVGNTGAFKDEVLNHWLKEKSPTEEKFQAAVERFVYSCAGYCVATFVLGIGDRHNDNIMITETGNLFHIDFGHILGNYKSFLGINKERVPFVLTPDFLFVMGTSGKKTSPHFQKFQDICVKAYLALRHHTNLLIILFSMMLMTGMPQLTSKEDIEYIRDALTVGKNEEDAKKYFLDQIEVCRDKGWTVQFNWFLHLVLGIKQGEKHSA

## C[C@H]1OC(=O)N(c2nc(-c3cnc(N)nc3C(F)(F)F)cc(N3CCOCC3)n2)[C@H]1CO
[1]
  AUC/dose: 3580 nM·h
[2]
  half-life: 9.9 h
[3]
  Activity: Toxic
[4]
  IC50: 251 nM
[5]
  hepatic extraction ratio at 1 h: 0.35
[6]
  fold change (FC): 2
[7]
  Activity: Toxic
[8]
  Kp at 5 min: 0.02
[9]
  solubility: 31 µM (≈ 14.1 µg/mL)
[10]
  concentration at 5 min: 3040 nM
[11]
  AUC/dose: 1738 nM·h
[12]
  AUC/dose: 1.28 µM·h
[13]
  Ct: 67 pmol/g
[14]
  AUC/dose: 1.35 µM·h
[15]
  Activity: Toxic
[16]
  T/C: -0.2
Caco-2
  Pm: 73 10^-5 cm/min
[17]
  solubility at 0.5 h: 64 µM (≈ 29.1 µg/mL)
[18]
  AUC/dose: 1709 nM·h
[19]
  AUC/dose: 1.82 µM·h
[20]
  Cmax: 8950 nM
[21]
  Activity: Non-Toxic
[22]
  Tmax: 2 h
[23]
  IC50: 179 nM
[24]
  Tmax: 1.3 h
[25]
  bioavailability: 20%
[26]
  Cmax/dose: 1121 nM
Rat1
  T/C: 0.14
[27]
  concentration at 192 h: 140 nM
[28]
  IC50: 263 nM
[29]
  Activity: Non-Toxic
[30]
  Cmax: 422 nM
[31]
  half-life: 2 h
cells
  IC50: 26 nM
[32]
  fraction unbound at 4 h: 0.24
[33]
  Tmax: 0.5 h
[34]
  IC50: 230 nM
[35]
  half-life: 11 h
